Columns and labels:
Ba/F3 cells = assay: Growth of Ba/F3 cells without expression vectors in HEL-containing medium without IL-3; type: cell-based, mouse; conditions: RPMI 1640, 10 μg/ml HEL, 10% FBS, no expression vectors introduced
Protocol: Two plasmids, PME-VHER and pME-VLER, produced in Example 1, were introduced into the cell line Ba/F3 which is derived from the interleukin-3 (IL-3) dependent mouse pro-B cells, by using electroporation method. The Ba/F3 cells (2×10^6) in the logarithmic growth period and 5 μg each of above plasmid DNAs linearized with the restriction enzyme KpnI were suspended in 100 μl HBS (Hanks' Buffered Saline: Nissui Pharmacy). Rectangular pulses, 500 volts/150 μsec, were applied 10 times using a gene introduction electric pulse generator (electrodes of 4 mm intervals, Bio-Rad). The cells was kept at room temperatures for five minutes, diluted in 4 ml RPMI 1640 culture media (Nissui Pharmacy) containing 400 μg/ml G418 (Sigma), 8 ng/ml mouse IL-3 (Genzyme) and 10% fetal bovine serum (FBS, Gibco), added into 24-well plates 1 ml each, and cultured for two weeks at 37° C. in the 5% CO2 humidified atmosphere. The resultant colonies were mixed and cultured for another three days in the same media 100 μl cell suspensions were diluted in 2 ml RPMI 1640 medium containing 10 μg/ml hen egg lysozyme (HEL, Seikagaku) and 10% FBS (Gibco) and were subcultured. The Ba/F3 cell line is known to be released from IL-3 dependency by the ectopic expression of the EPO receptor when EPO is added to the medium. […]

[1] = tested on: Ba/HEL cells (Ba/F3 cells expressing VH/VL-EpoR chimeric receptors); assay: Antigen-dependent growth of Ba/HEL cell clones (viable cell count, trypan blue); type: cell-based, mouse
Protocol: FIG. 3 is a graph showing the relation between the concentrations of antigen n a culture medium and cell growth rates. Clone G8 was obtained by transforming Ba/F3 cells with the VH/VL EpoR vector constructs and growing in the presence of antigen. In this experiment, separate cultures of Clone G8 was cultured with different constant amounts of the antigen HEL over a 5-day period. Cell proliferation was dose-dependent, and was inducible up to at least about 5 times the rate by including antigen in the culture medium.
The clones of Ba/HEL cells were cultured with various concentrations of HEL to measure the change of the cell number over time. HEL was added in the concentrations of 0, 0.005, 0.05 and 0.5 μg/ml to the RPMI 1640 medium containing 10% FBS, seeded Ba/HEL clones with the initial concentration of 5×10^3 ml, and measured the change in the number of viable cells over time by the cell count method using trypan blue.
Cell growth was conspicuously accelerated with as low as 5 ng/ml antigen. This concentration agrees with the detectable antigen concentration in the immunoassay based on VH/VL association of HyHEL-10 Fv (Ueda et al., Nature Biotech, 14, 1714-1718, 1996). Accordingly, antigen concentration can be measured, that is, immunoassay can be performed using the level of growth of this cell as an index.

## hen egg lysozyme [HEL]
Ba/F3 cells
  Growth of cells in HEL-containing medium: did not grow
[1]; Ba/HEL clone G8, similar results for all clones inspected
  Cell growth in relation to the HEL concentration in the medium: cell growth depends on the concentration of HEL
[1]; Ba/HEL clones, RPMI 1640 with 10% FBS, HEL 0, 0.005, 0.05 and 0.5 μg/ml
  Antigen concentration at which cell growth was conspicuously accelerated: ≤ 5 ng/mL
[1]; Clone G8, different constant amounts of HEL over a 5-day period
  Cell proliferation inducible by including antigen in the culture medium: at least 5 times the rate

— US20030095962A1, “Chimeric cell-surface receptors that undergo antigen-induced association” (priority 1997, published 2003)
